# How the values were obtained:
# Assay type in all cases: in vivo
# [1] = tested on: Albino rats of Wistar strain; experiment: Evaluation of ulcerogenicity index (pylorus ligation); parameters: scale not given here; settings: pylorus ligated on fourth day, mean ± SD (n = 6)
# Procedure: The synthesized compounds were evaluated for analgesic, anti-inflammatory, and ulcerogenic index. […] The test compounds and the standard drugs were administered in the form of a suspension (1% carboxymethyl cellulose as a vehicle) by oral route for analgesic and anti-inflammatory but for ulcerogenicity studies by intraperitoneally as suspension in 10% v/v Tween-20. Each group consisted of six animals. The animals were procured from the C. L. Baid Metha College of pharmacy, Chennai, and were maintained in colony cages at 25 ±2°C, relative humidity of 45-55%, under a 12-h light and dark cycle; they were fed standard animal feed. All the animals were acclimatized for a week before use. The Institutional Animal Ethics Committee approved the protocol adopted for the experimentation of animals. Ulceration in rats was induced as described by Goyal et al. Albino rats of Wistar strain weighing 150-200 g of either sex were divided into various groups each of six animals.[16] Control group of animals was administered only with 10% v/v Tween 80 suspension intraperitonially. One group was administered with aspirin (German Remedies) intraperitoneally at a dose of 200 mg/kg once daily for 3 days. The remaining group of animals was administered with test compounds intraperitoneally at a dose of 20 mg/kg. On fourth day, Pylorus was ligated as per the method of Shay et al.[17] Animals were fasted for 36 h before the pylorus ligation procedure. Four hours after the ligation, animals were sacrificed. The stomach was removed and opened along with the greater curvature. Ulcer index was determined by the method of Ganguly and Bhatnagar.[18]
# [2] = tested on: carrageenan-induced paw edema in rats; experiment: Anti-inflammatory activity, carrageenan-induced paw edema test; settings: for Percent anti-inflammatory activity (percent inhibition of paw edema): mean ± SD (n = 6); for Anti-inflammatory activity compared to reference standard diclofenac sodium (in words): carrageenan-induced paw edema in rats
# Procedure: (§1) The synthesized compounds were evaluated for analgesic, anti-inflammatory, and ulcerogenic index. […] The test compounds and the standard drugs were administered in the form of a suspension (1% carboxymethyl cellulose as a vehicle) by oral route for analgesic and anti-inflammatory but for ulcerogenicity studies by intraperitoneally as suspension in 10% v/v Tween-20. Each group consisted of six animals. The animals were procured from the C. L. Baid Metha College of pharmacy, Chennai, and were maintained in colony cages at 25 ±2°C, relative humidity of 45-55%, under a 12-h light and dark cycle; they were fed standard animal feed. All the animals were acclimatized for a week before use. The Institutional Animal Ethics Committee approved the protocol adopted for the experimentation of animals.
# Anti-inflammatory activity was evaluated by carrageenan-induced paw edema test in rats.[15] Diclofenac sodium 10, 20 mg/kg was administered as a standard drug for comparison. The test compounds were administered at two dose levels (10 mg/kg, 20 mg/kg). The paw volumes were measured using the mercury displacement technique with the help of a plethysmograph (Model PLYAN; Buxco, USA) immediately before and 30 min, 1, 2, and 3 h after carrageenan injection. The percent inhibition of paw edema was calculated using the following formula.
# Percent inhibition I = 100 1− (a−x) / (b−y)
# Where x is the mean paw volume of rats before the administration of carrageenan and test compounds or reference compound (test group), a is the mean paw volume of rats after the administration of carrageenan in the test group (drug treated), b is the mean paw volume of rats after the administration of carrageenan in the control group, y is the mean paw volume of rats before the administration of carrageenan in the control group.
# Wistar albino mice = experiment: Analgesic activity, tail-flick technique; settings: for Percent analgesic activity: mean ± SD (n = 6); for Analgesic activity (in words): tail-flick, structure-activity comparison within the series / vs diclofenac sodium
# Procedure: as §1
# The analgesic activity was performed by tail-flick technique using Wistar albino mice (25-35 g) of either sex selected by the random sampling technique.[1314] Diclofenac sodium at a dose level of 10 mg/kg and 20 mg/kg was administered orally as reference drug for comparison. The test compounds at two dose levels (10, 20 mg/kg) were administered orally. The reaction time was recorded at 30 min, 1, 2, and 3 h after the treatment, and cut-off time was 10 s. The percent analgesic activity (PAA) was calculated by the following formula, where T1 is the reaction time (s) before treatment, and T2 is the reaction time (s) after treatment.
# [3] = test compounds 20 mg/kg intraperitoneally
# [4] = 10 mg/kg oral, 30 min after carrageenan
# [5] = 10 mg/kg oral, 1 h after carrageenan
# [6] = 10 mg/kg oral, 2 h after carrageenan
# [7] = 10 mg/kg oral, 3 h after carrageenan
# [8] = 20 mg/kg oral, 30 min after carrageenan
# [9] = 20 mg/kg oral, 1 h after carrageenan
# [10] = 20 mg/kg oral, 2 h after carrageenan
# [11] = 20 mg/kg oral, 3 h after carrageenan
# [12] = 10 mg/kg oral, 30 min after treatment
# [13] = 10 mg/kg oral, 1 h after treatment
# [14] = 10 mg/kg oral, 2 h after treatment
# [15] = 10 mg/kg oral, 3 h after treatment
# [16] = 20 mg/kg oral, 30 min after treatment
# [17] = 20 mg/kg oral, 1 h after treatment
# [18] = 20 mg/kg oral, 2 h after treatment
# [19] = 20 mg/kg oral, 3 h after treatment
SMILES,"Ulcer index [1, 3]","Percent anti-inflammatory activity (percent inhibition of paw edema) [2, 4] [%]","Percent anti-inflammatory activity (percent inhibition of paw edema) [2, 5] [%]","Percent anti-inflammatory activity (percent inhibition of paw edema) [2, 6] [%]","Percent anti-inflammatory activity (percent inhibition of paw edema) [2, 7] [%]","Percent anti-inflammatory activity (percent inhibition of paw edema) [2, 8] [%]","Percent anti-inflammatory activity (percent inhibition of paw edema) [2, 9] [%]","Percent anti-inflammatory activity (percent inhibition of paw edema) [2, 10] [%]","Percent anti-inflammatory activity (percent inhibition of paw edema) [2, 11] [%]",Percent analgesic activity (Wistar albino mice; [12]) [%],Percent analgesic activity (Wistar albino mice; [13]) [%],Percent analgesic activity (Wistar albino mice; [14]) [%],Percent analgesic activity (Wistar albino mice; [15]) [%],Percent analgesic activity (Wistar albino mice; [16]) [%],Percent analgesic activity (Wistar albino mice; [17]) [%],Percent analgesic activity (Wistar albino mice; [18]) [%],Percent analgesic activity (Wistar albino mice; [19]) [%],Analgesic activity (in words) (Wistar albino mice),further results
"CC(=O)Oc1ccccc1C(=O)O [Aspirin, aspirin, reference compound]",–,–,–,–,–,–,–,–,–,–,–,–,–,–,–,–,–,–,"Ulcer index ([1]; aspirin 200 mg/kg intraperitoneally once daily for 3 days): 1.73 ± 0.39; Ulcer index ([1]; aspirin 200 mg/kg intraperitoneally once daily for 3 days, listed as aspirin): 1.73 ± 0.41"
O=C1Nc2ccc(F)cc2C1=Nc1ccc(N=Cc2ccc(O)cc2)cc1 [Compound N10],0.81 ± 1.18,43 ± 1.55,49 ± 1.72,54 ± 1.52,39 ± 1.92,48 ± 1.56,54 ± 1.65,58 ± 1.16,42 ± 1.43,43 ± 1.55,46 ± 1.72,49 ± 1.52,38 ± 1.92,48 ± 1.56,52 ± 1.96,58 ± 1.16,42 ± 1.43,–,–
CCC(CC)=Nc1ccc(N=C2C(=O)Nc3ccc(F)cc32)cc1 [Compound N2],0.97 ± 1.53,42 ± 1.25,50 ± 1.38,53 ± 1.15,45 ± 1.68,51 ± 1.44,57 ± 1.72,62 ± 1.26,54 ± 1.67,50 ± 1.25,56 ± 1.32,60 ± 1.15,45 ± 1.68,57 ± 1.44,60 ± 1.90,64 ± 1.26,50 ± 1.67,–,Anti-inflammatory activity compared to reference standard diclofenac sodium (in words) [2]: equipotent
O=C1Nc2ccc(F)cc2C1=Nc1ccc(N=C2CCCCC2)cc1 [Compound N4],0.89 ± 1.26,38 ± 1.82,50 ± 1.24,55 ± 1.15,35 ± 1.76,45 ± 1.36,56 ± 1.83,60 ± 1.19,44 ± 1.65,48 ± 1.28,52 ± 1.52,54 ± 1.15,35 ± 1.76,55 ± 1.36,57 ± 1.66,59 ± 1.19,44 ± 1.65,moderate decrease in activity,–
O=C1Nc2ccc(F)cc2C1=Nc1ccc(N=Cc2ccccc2)cc1 [Compound N6],0.84 ± 1.78,37 ± 1.67,42 ± 1.42,49 ± 1.58,36 ± 1.96,46 ± 1.48,55 ± 1.76,59 ± 1.93,38 ± 1.47,37 ± 1.87,46 ± 1.42,49 ± 1.15,36 ± 1.96,49 ± 1.83,54 ± 1.76,59 ± 1.18,43 ± 1.47,decreasing activity,–
O=C1Nc2ccc(F)cc2C1=Nc1ccc(N=Cc2ccc([N+](=O)[O-])cc2)cc1 [Compound N8],0.92 ± 1.45,40 ± 1.65,44 ± 1.53,48 ± 1.74,36 ± 1.36,49 ± 1.46,52 ± 1.92,56 ± 1.16,39 ± 1.48,39 ± 1.75,46 ± 1.43,48 ± 1.24,36 ± 1.36,48 ± 1.46,51 ± 1.92,54 ± 1.16,39 ± 1.48,further decrease of activity,Anti-inflammatory activity compared to reference standard diclofenac sodium (in words) [2]: equipotent
CC(=Nc1ccc(N=C2C(=O)Nc3ccc(F)cc32)cc1)c1ccccc1 [Compound N5],0.82 ± 1.32,39 ± 1.56,46 ± 1.88,52 ± 1.65,32 ± 1.26,45 ± 1.73,54 ± 1.95,59 ± 1.36,42 ± 1.48,44 ± 1.76,49 ± 1.88,52 ± 1.55,32 ± 1.26,52 ± 1.33,55 ± 1.95,59 ± 1.36,42 ± 1.48,moderate decrease in activity,–

# From paper PMC3021692, “Synthesis and Pharmacological Evaluation of Novel Schiff Base Analogues of 3-(4-amino) Phenylimino) 5-fluoroindolin-2-one” (Journal of Young Pharmacists : JYP, 2010)
